Columns and labels:
[1] = biological target: purified carbonic anhydrase (Homo sapiens, UniProt P00918); assay: Enzymatic carbonic anhydrase inhibition assay (modification of Maren's micromethod); assay type: biochemical; conditions: relative to acetazolamide control = 100%
Procedure: CAI efficacy and potency are assessed using an enzymatic method. […] Essentially, a reaction volume of 0.8 mL containing a carbonate/bicarbonate buffer, phenol red, purified carbonic anhydrase, and inhibitor is maintained at 0° and saturated with CO2 by constant bubbling. The time required for acidification to a color change endpoint is monitored as the dependent variable.

[2] = topical CAI, lowering of IOP; cited from earlier work
[3] = oral administration; cited from earlier work

Row | Structure (SMILES) | Relative CA inhibition Potency [1] [%] | also measured
1 | NS(=O)(=O)c1nnc(NC(CC(=O)O)C(=O)O)s1 (stereo not drawn) [Example 2] | 48 | 
2 | Nc1ccc2nc(S(N)(=O)=O)sc2c1 [aminozolamide] |  | efficacy in clinical trial [2]: partially effective
3 | CC(=O)Nc1nnc(S(N)(=O)=O)s1 [acetazolamide, 2-acetylamino-1,3,4-thiadiazole-5-sulfonamide] |  | effect on IOP [3]: decrease IOP

Further lines, with some results ahead:

Row | Relative CA inhibition Potency [1] [%] | Structure (SMILES) | also measured
4 | 22 | NS(=O)(=O)c1nnc(NC(CCC(=O)O)C(=O)O)s1 (stereo not drawn) [Example 3] | 
5 | 20 | NS(=O)(=O)c1nnc(NC(CCCC(=O)O)C(=O)O)s1 (stereo not drawn) [Example 4] | 
6 | 60 | NS(=O)(=O)c1nnc(NC(CCC(=O)O)CC(=O)O)s1 (stereo not drawn) [Example 5] | 

Source: patent US5055480A, “Topically active ocular gem-diacylthiadiazole sulfonamide carbonic anhydrase inhibitors” (Research Corporation Technologies, Inc., priority 1990, dated 1991)
